Results taken from ChEMBL document CHEMBL1140790, “Determination of absolute stereochemistry, total synthesis, and evaluation of peptides from the myxomycete Physarum melleum” (Bioorg Med Chem Lett, 2008).
Active and inactive are the calls of the source. The calls are words filed in the database; no cut-off is given here.

Experiment: Inhibition of Wnt signal activity by luciferase superTOP-Flash gene assay

SMILES	Activity
COC(=O)C[C@H](O)[C@H](Cc1ccc(O)cc1)NC(=O)CNC(=O)[C@H](NC(=O)c1ccc(OC)cc1)[C@@H](C)O	Active
COC(=O)C[C@H](O)[C@H](Cc1ccc(O)cc1)NC(=O)CNC(=O)[C@@H](NC(=O)c1ccc(OC)cc1)[C@@H](C)O	inactive
